{"source": "patent US10604524B2", "about": "“Pyrropyrimidine compounds as MNKs inhibitors” (LIFEARC, priority 2015, dated 2020)", "key": {"STK17A": {"target": "STK17A (Homo sapiens, UniProt Q9UEE5)", "sequence (Q9UEE5 whole entry, species assumed)": "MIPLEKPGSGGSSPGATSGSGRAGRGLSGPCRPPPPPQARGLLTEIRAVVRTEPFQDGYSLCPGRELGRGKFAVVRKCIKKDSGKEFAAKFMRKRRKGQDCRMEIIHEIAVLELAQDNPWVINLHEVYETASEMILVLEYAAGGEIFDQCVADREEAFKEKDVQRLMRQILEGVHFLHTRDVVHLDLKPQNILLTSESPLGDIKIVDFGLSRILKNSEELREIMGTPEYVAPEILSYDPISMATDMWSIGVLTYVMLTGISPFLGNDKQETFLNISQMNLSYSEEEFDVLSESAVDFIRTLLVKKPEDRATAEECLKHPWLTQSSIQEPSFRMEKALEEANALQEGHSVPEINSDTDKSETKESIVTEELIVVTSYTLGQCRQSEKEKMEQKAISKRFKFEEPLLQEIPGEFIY", "test": "Kinase selectivity screen", "settings": "read-out: % Inhibition STK17A"}, "PRKCE": {"target": "PRKCE (Homo sapiens, UniProt Q02156)", "test": "Kinase selectivity screen", "settings": "read-out: % Inhibition PRKCE"}, "KIT": {"target": "KIT (Homo sapiens, UniProt P10721)", "test": "Kinase selectivity screen", "settings": "read-out: % Inhibition KIT"}, "STK11": {"target": "STK11 (Homo sapiens, UniProt Q15831)", "test": "Kinase selectivity screen", "settings": "read-out: % Inhibition STK11"}, "AKT2": {"target": "AKT2 (Homo sapiens, UniProt P31751)", "test": "Kinase selectivity screen", "settings": "read-out: % Inhibition AKT2"}, "PAK2": {"target": "PAK2 (Homo sapiens, UniProt Q13177)", "test": "Kinase selectivity screen", "settings": "read-out: % Inhibition PAK2"}, "RPS6KB1": {"target": "RPS6KB1 (Homo sapiens, UniProt P23443)", "sequence (P23443 whole entry, species assumed)": "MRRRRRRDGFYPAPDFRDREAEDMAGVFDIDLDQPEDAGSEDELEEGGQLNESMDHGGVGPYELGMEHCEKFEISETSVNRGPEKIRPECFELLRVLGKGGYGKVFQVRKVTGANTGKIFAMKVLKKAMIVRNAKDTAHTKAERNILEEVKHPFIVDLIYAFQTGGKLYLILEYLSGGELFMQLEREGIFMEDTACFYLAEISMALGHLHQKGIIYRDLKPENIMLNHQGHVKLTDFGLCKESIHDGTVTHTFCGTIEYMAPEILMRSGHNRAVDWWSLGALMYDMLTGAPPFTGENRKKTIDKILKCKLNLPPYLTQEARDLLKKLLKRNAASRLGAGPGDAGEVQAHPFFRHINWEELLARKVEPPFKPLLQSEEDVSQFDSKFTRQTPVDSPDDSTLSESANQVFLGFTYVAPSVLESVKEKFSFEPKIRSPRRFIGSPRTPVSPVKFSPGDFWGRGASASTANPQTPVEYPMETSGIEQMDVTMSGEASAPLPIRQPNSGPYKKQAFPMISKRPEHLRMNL", "test": "Kinase selectivity screen", "settings": "read-out: % Inhibition RPS6KB1"}, "GSK3A": {"target": "GSK3A (Homo sapiens, UniProt P49840)", "test": "Kinase selectivity screen", "settings": "read-out: % Inhibition GSK3A"}, "Full-length human MNK1": {"target": "Full-length human MNK1 (Homo sapiens, UniProt Q9BUB5, T385D)", "test": "MNK1 biochemical IC50 assay (Caliper mobility shift)"}, "SGK1": {"target": "SGK1 (Homo sapiens, UniProt O00141)", "test": "Kinase selectivity screen", "settings": "read-out: % Inhibition SGK1"}, "MYLK": {"target": "MYLK (Homo sapiens, UniProt Q15746)", "test": "Kinase selectivity screen", "settings": "read-out: % Inhibition MYLK"}, "PRKG1": {"target": "PRKG1 (Homo sapiens, UniProt Q13976)", "test": "Kinase selectivity screen", "settings": "read-out: % Inhibition PRKG1"}, "FER": {"target": "FER (Homo sapiens, UniProt P16591)", "test": "Kinase selectivity screen", "settings": "read-out: % Inhibition FER"}, "EPHB4": {"target": "EPHB4 (Homo sapiens, UniProt P54760)", "test": "Kinase selectivity screen", "settings": "read-out: % Inhibition EPHB4"}, "EGFR": {"target": "EGFR (Homo sapiens, UniProt P00533)", "test": "Kinase selectivity screen", "settings": "read-out: % Inhibition EGFR"}, "YES1": {"target": "YES1 (Homo sapiens, UniProt P07947)", "test": "Kinase selectivity screen", "settings": "read-out: % Inhibition YES1"}, "PLK1": {"target": "PLK1 (Homo sapiens, UniProt P53350)", "sequence (P53350 whole entry, species assumed)": "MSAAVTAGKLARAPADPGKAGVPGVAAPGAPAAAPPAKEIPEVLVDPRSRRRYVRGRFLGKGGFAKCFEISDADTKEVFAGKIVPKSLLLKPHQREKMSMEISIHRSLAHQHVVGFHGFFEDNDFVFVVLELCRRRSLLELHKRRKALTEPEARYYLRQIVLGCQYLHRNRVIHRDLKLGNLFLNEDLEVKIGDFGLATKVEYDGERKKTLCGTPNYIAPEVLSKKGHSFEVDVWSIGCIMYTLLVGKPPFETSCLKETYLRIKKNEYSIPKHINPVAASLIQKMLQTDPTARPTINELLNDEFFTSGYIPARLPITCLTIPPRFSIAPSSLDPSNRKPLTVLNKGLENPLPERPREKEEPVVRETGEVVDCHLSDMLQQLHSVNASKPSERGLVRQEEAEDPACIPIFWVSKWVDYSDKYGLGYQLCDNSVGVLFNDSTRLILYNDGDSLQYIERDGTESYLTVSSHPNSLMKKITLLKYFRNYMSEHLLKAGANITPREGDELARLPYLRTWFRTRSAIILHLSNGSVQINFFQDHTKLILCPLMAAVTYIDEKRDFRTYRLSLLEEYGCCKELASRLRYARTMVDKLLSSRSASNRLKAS", "test": "Kinase selectivity screen", "settings": "read-out: % Inhibition PLK1"}, "DMPK": {"target": "DMPK (Homo sapiens, UniProt Q09013)", "test": "Kinase selectivity screen", "settings": "read-out: % Inhibition DMPK"}, "PIK3CA": {"target": "PIK3CA (Homo sapiens, UniProt P42336)", "sequence (P42336 whole entry, species assumed)": "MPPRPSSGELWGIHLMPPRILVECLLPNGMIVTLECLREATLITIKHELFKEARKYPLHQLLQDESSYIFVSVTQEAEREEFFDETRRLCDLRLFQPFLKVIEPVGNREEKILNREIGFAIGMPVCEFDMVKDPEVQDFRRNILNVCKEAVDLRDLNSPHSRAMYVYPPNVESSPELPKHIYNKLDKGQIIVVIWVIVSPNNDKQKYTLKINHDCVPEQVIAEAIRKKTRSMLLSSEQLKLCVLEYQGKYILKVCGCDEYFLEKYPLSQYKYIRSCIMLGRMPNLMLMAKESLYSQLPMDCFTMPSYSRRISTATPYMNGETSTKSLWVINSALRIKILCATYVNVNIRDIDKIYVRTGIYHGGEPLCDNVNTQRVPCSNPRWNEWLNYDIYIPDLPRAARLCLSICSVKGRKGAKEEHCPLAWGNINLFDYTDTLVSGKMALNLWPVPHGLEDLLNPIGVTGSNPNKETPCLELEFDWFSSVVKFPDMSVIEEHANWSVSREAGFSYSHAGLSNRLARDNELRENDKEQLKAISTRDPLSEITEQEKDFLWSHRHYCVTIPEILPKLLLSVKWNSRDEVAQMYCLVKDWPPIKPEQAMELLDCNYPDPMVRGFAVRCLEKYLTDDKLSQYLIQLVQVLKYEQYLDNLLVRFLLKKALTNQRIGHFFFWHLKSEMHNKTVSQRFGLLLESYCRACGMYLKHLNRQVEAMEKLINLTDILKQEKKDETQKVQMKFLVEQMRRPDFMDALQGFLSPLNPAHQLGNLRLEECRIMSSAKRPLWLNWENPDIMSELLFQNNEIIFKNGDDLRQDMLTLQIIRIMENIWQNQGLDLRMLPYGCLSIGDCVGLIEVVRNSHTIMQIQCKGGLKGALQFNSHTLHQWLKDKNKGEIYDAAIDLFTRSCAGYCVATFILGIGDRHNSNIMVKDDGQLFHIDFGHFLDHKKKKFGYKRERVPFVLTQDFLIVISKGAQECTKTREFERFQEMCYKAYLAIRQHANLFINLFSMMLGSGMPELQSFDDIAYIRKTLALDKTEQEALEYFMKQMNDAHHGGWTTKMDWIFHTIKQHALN", "sequence (P27986 whole entry partner, species assumed)": "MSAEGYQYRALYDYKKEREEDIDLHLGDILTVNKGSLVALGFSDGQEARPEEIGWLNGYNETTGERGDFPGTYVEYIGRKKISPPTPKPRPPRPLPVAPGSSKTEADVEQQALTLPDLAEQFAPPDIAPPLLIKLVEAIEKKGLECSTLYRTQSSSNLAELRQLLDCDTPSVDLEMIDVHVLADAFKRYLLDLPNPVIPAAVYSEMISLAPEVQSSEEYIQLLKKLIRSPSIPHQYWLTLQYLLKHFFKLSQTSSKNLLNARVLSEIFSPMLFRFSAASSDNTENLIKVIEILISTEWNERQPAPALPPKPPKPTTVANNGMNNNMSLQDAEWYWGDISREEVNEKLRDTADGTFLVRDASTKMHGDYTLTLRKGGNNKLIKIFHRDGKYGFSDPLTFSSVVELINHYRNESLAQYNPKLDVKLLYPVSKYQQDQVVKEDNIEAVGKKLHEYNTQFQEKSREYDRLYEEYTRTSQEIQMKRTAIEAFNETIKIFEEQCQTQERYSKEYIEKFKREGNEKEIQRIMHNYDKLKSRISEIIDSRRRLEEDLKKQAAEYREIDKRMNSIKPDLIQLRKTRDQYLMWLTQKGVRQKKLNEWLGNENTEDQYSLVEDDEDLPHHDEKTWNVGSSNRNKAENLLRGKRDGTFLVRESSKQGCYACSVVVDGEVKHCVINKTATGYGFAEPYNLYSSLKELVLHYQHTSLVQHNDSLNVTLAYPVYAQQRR", "test": "Kinase selectivity screen", "settings": "read-out: % Inhibition PIK3CA"}, "MARK1": {"target": "MARK1 (Homo sapiens, UniProt Q9P0L2)", "test": "Kinase selectivity screen", "settings": "read-out: % Inhibition MARK1"}, "TGFBR1": {"target": "TGFBR1 (Homo sapiens, UniProt P36897)", "test": "Kinase selectivity screen", "settings": "read-out: % Inhibition TGFBR1"}, "EPHB1": {"target": "EPHB1 (Homo sapiens, UniProt P54762)", "test": "Kinase selectivity screen", "settings": "read-out: % Inhibition EPHB1"}, "STK4": {"target": "STK4 (Homo sapiens, UniProt Q13043)", "test": "Kinase selectivity screen", "settings": "read-out: % Inhibition STK4"}, "PRKAA2": {"target": "PRKAA2 (Homo sapiens, UniProt P54646)", "test": "Kinase selectivity screen", "settings": "read-out: % Inhibition PRKAA2"}, "JAK2": {"target": "JAK2 (Homo sapiens, UniProt O60674)", "test": "Kinase selectivity screen", "settings": "read-out: % Inhibition JAK2"}, "CSNK2A2": {"target": "CSNK2A2 (Homo sapiens, UniProt P19784)", "test": "Kinase selectivity screen", "settings": "read-out: % Inhibition CSNK2A2"}, "PIM2": {"target": "PIM2 (Homo sapiens, UniProt Q9P1W9)", "sequence (Q9P1W9 whole entry, species assumed)": "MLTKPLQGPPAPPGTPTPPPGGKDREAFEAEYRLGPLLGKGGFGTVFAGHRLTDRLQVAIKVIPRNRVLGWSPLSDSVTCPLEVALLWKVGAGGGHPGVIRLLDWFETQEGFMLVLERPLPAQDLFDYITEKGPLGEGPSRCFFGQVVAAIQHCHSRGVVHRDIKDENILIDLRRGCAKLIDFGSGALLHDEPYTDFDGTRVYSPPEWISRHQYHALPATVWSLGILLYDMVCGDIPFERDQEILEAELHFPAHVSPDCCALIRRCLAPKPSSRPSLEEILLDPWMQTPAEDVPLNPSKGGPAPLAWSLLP", "test": "Kinase selectivity screen", "settings": "read-out: % Inhibition PIM2"}, "MAP3K9": {"target": "MAP3K9 (Homo sapiens, UniProt P80192)", "test": "Kinase selectivity screen", "settings": "read-out: % Inhibition MAP3K9"}, "PIK3CB": {"target": "PIK3CB (Homo sapiens, UniProt P42338)", "test": "Kinase selectivity screen", "settings": "read-out: % Inhibition PIK3CB"}, "SRC": {"target": "SRC (Homo sapiens, UniProt P12931)", "test": "Kinase selectivity screen", "settings": "read-out: % Inhibition SRC"}, "CSF1R": {"target": "CSF1R (Homo sapiens, UniProt P07333)", "test": "Kinase selectivity screen", "settings": "read-out: % Inhibition CSF1R"}, "INSR": {"target": "INSR (Homo sapiens, UniProt P06213)", "test": "Kinase selectivity screen", "settings": "read-out: % Inhibition INSR"}, "PDGFRB": {"target": "PDGFRB (Homo sapiens, UniProt P09619)", "test": "Kinase selectivity screen", "settings": "read-out: % Inhibition PDGFRB"}, "PAK1": {"target": "PAK1 (Homo sapiens, UniProt Q13153)", "test": "Kinase selectivity screen", "settings": "read-out: % Inhibition PAK1"}, "MINK1": {"target": "MINK1 (Homo sapiens, UniProt Q8N4C8)", "sequence (Q8N4C8 whole entry, species assumed)": "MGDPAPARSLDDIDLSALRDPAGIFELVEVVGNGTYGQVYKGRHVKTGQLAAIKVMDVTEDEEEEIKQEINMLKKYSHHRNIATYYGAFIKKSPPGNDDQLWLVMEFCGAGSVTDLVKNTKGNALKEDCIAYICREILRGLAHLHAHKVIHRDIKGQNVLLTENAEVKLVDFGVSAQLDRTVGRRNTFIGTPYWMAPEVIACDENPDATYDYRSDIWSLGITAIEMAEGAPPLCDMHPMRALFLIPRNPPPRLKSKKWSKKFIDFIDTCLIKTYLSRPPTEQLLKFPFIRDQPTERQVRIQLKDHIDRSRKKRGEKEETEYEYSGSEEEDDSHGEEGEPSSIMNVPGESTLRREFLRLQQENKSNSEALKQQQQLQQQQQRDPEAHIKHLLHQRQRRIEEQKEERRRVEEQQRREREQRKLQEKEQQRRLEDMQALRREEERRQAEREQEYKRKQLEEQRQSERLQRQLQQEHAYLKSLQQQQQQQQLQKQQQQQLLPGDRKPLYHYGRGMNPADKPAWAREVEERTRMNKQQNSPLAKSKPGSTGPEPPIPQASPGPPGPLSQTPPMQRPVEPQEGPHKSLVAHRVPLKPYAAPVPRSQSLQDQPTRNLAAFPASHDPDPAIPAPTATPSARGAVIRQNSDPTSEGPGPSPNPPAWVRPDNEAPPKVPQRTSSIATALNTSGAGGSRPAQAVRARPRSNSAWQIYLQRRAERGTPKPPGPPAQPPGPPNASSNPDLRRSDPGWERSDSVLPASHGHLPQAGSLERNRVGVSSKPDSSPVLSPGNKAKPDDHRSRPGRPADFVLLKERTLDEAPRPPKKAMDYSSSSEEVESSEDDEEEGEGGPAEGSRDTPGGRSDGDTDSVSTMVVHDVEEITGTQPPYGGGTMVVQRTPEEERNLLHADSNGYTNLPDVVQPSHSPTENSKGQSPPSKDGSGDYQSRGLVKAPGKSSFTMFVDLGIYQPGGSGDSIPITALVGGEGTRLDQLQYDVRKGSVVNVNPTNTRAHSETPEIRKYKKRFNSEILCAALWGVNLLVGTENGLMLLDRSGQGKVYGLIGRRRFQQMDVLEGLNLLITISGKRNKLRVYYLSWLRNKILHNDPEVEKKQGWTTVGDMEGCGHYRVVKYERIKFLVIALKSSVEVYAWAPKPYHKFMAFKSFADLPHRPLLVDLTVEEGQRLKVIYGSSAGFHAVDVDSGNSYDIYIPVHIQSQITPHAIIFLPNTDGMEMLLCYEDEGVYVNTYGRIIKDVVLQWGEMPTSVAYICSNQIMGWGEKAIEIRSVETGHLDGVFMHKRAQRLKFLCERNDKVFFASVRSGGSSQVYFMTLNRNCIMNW", "test": "Kinase selectivity screen", "settings": "read-out: % Inhibition MINK1"}}, "note": "pIC50: −log10 of the molar value.", "data": [{"compound": "CC(C)Oc1cc(F)ccc1Nc1ncnc2cc(C(=O)NCCCN(C)C)n(C)c12", "note": "[Example 40, N-[3-(dimethylamino)propyl]-4-{[4-fluoro-2-(propan-2-yloxy)phenyl]amino}-5-methyl-5H-pyrrolo[3,2-d]pyrimidine-6-carboxamide]", "values": [{"measurement": "inhibition at 1 µM", "setting": "STK17A", "result": 2, "unit": "%"}, {"measurement": "inhibition at 1 µM", "setting": "PRKCE", "result": 0, "unit": "%"}, {"measurement": "inhibition at 1 µM", "setting": "KIT", "result": 2, "unit": "%"}, {"measurement": "inhibition at 1 µM", "setting": "STK11", "result": 0, "unit": "%"}, {"measurement": "inhibition at 1 µM", "setting": "AKT2", "result": 0, "unit": "%"}, {"measurement": "inhibition at 1 µM", "setting": "PAK2", "result": 0, "unit": "%"}, {"measurement": "inhibition at 1 µM", "setting": "RPS6KB1", "result": 0, "unit": "%"}, {"measurement": "inhibition at 1 µM", "setting": "GSK3A", "result": 0, "unit": "%"}, {"measurement": "pIC50", "setting": "Full-length human MNK1", "result": 7.30}, {"measurement": "inhibition at 1 µM", "setting": "SGK1", "result": 0, "unit": "%"}, {"measurement": "inhibition at 1 µM", "setting": "MYLK", "result": 0, "unit": "%"}, {"measurement": "inhibition at 1 µM", "setting": "PRKG1", "result": 0, "unit": "%"}, {"measurement": "inhibition at 1 µM", "setting": "FER", "result": 0, "unit": "%"}, {"measurement": "inhibition at 1 µM", "setting": "EPHB4", "result": 2, "unit": "%"}, {"measurement": "inhibition at 1 µM", "setting": "EGFR", "result": 0, "unit": "%"}, {"measurement": "inhibition at 1 µM", "setting": "YES1", "result": 0, "unit": "%"}, {"measurement": "inhibition at 1 µM", "setting": "PLK1", "result": 0, "unit": "%"}, {"measurement": "inhibition at 1 µM", "setting": "DMPK", "result": 0, "unit": "%"}, {"measurement": "inhibition at 1 µM", "setting": "PIK3CA", "result": 5, "unit": "%"}, {"measurement": "inhibition at 1 µM", "setting": "MARK1", "result": 0, "unit": "%"}, {"measurement": "inhibition at 1 µM", "setting": "TGFBR1", "result": 0, "unit": "%"}, {"measurement": "inhibition at 1 µM", "setting": "EPHB1", "result": 0, "unit": "%"}, {"measurement": "inhibition at 1 µM", "setting": "STK4", "result": 0, "unit": "%"}, {"measurement": "inhibition at 1 µM", "setting": "PRKAA2", "result": 0, "unit": "%"}, {"measurement": "inhibition at 1 µM", "setting": "JAK2", "result": 0, "unit": "%"}, {"measurement": "inhibition at 1 µM", "setting": "CSNK2A2", "result": 0, "unit": "%"}, {"measurement": "inhibition at 1 µM", "setting": "PIM2", "result": 0, "unit": "%"}, {"measurement": "inhibition at 1 µM", "setting": "MAP3K9", "result": 0, "unit": "%"}, {"measurement": "inhibition at 1 µM", "setting": "PIK3CB", "result": 1, "unit": "%"}, {"measurement": "inhibition at 1 µM", "setting": "SRC", "result": 0, "unit": "%"}, {"measurement": "inhibition at 1 µM", "setting": "CSF1R", "result": 8, "unit": "%"}, {"measurement": "inhibition at 1 µM", "setting": "INSR", "result": 0, "unit": "%"}, {"measurement": "inhibition at 1 µM", "setting": "PDGFRB", "result": 5, "unit": "%"}, {"measurement": "inhibition at 1 µM", "setting": "PAK1", "result": 0, "unit": "%"}, {"measurement": "inhibition at 1 µM", "setting": "MINK1", "result": 0, "unit": "%"}]}]}
